Experimental findings from patent US9040061B2, “Topical formulation for administering a compound” (Rigel Pharmaceuticals, Inc., priority 2011, dated 2015) are described below.

Converted amounts (≈) assume the structure as drawn. Where a name gives a salt, the structure may show the parent alone. Read-outs that look alike come from different tables or passages of the source. Marks after values point to notes of the source that are not given here.

The nature of series [1]: Solubility studies of compound I. The format is physicochemical. As to the method:
The solubility of compound I free base in water is only 2 μg/mL. […] Accordingly, the free base was utilized for the formulation development of compound I.

Series [2] is described as follows: Solubility studies of compound I. The format is physicochemical. The source holds these as a separate data set.
Series [3] has as its system receptor tyrosine kinase (RTK) signaling. Nature of the series: Receptor tyrosine kinase signaling. The format is cell-based.
The subject of series [4] is other cytokine (IL-1β and TNFα) signaling. Put plainly: Other cytokine signaling. The class given is cell-based.
In series [5] the test system is primary human T-cells. Nature of the series: Primary human T-cell proliferation assay stimulated with IL-2. The class given is cell-based. The following applies: IL-2, 72 hours, CellTiter-Glo. From the text: The JAK activity of compound I may further be characterized by assaying the effect of compound I on the proliferative response of primary human T-cells. In this assay, primary human T-cells derived from peripheral blood and pre-activated through stimulation of the T-cell receptor and CD28, proliferate in culture in response to the cytokine Interleukin-2 (IL-2). This proliferative response is dependent on the activation of JAK1 and JAK3 tyrosine kinases, which phosphorylate and activate the transcription factor Stat-5. The primary human T-cells are incubated with compound I in the presence of IL-2 for 72 hours and at the assay endpoint intracellular ATP concentrations are measured to assess cell viability. A reduction in cell proliferation compared to control conditions is indicative of inhibition of the JAK kinase pathway. An exemplary assay of this type is described in greater detail below.
Primary human T-cells derived from peripheral blood and pre-activated through stimulation of the T-cell receptor and CD28, proliferate in vitro in response to the cytokine Interleukin-2 (IL-2). […]
Proliferation was measured using CellTiter-Glo® Luminescent Cell Viability Assay (Promega), which determines the number of viable cells in culture based on quantitation of the ATP present, as an indicator of metabolically active cells. […]

For series [6], the target named is T1, Syk (Homo sapiens, UniProt P43405).
T1 construct: endogenous in cells
Put plainly: Human cell based assay against Syk. The settings on record: human cell based assays, read-out: half maximal effective concentration (EC50).

The test system of series [7] is cell proliferation. Nature of the series: Cell proliferation. The class given is cell-based.
Series [8] concerns human Ramos B cells stimulated with human IL-4 (JAK1 and JAK3, CD23 upregulation). Put plainly: Ramos B-cell line stimulated with IL-4, CD23 upregulation (FACS). The format is cell-based. The settings on record: IL-4 50 units/mL for 20-24 hours, anti-CD23-PE FACS. From the text:
One means of assaying for JAK inhibition is detection of the effect of compound I on the upregulation of downstream gene products. In the Ramos/IL4 assay, B-cells are stimulated with the cytokine Interleukin-4 (IL-4) leading to the activation of the JAK/Stat pathway through phosphorylation of the JAK family kinases, JAK1 and JAK3, which in turn phosphorylate and activate the transcription factor Stat-6. […] To study the effect of inhibitors (for example, the 2,4-substituted pyrimidinediamine compounds described herein) on the JAK1 and JAK3 kinases, human Ramos B cells are stimulated with human IL-4. Twenty to 24 hours post stimulation, cells are stained for upregulation of CD23 and analyzed using flow cytometry (FACS). […] An exemplary assay of this type is described in greater detail below.
B-cells stimulated with cytokine Interleukin-4 (IL-4) activate the JAK/Stat pathway through phosphorylation of the JAK family kinases, JAK-1 and JAK-3, which in turn phosphorylate and activate the transcription factor Stat-6. […] To study the effect of inhibitors on the JAK family kinases, human Ramos B cells are stimulated with human IL-4.
The Ramos B-cell line was acquired from ATCC (ATCC Catalog No. CRL-1596). […]
Cells were spun down and suspended in RPMI with 5% serum. […] Cells were then spun down and stained with anti-CD23-PE (BD Pharmingen, San Diego, Calif., Cat No. 555711) and analyzed by FACS. […]

What is called solubility is the concentration that dissolves in the medium under given conditions. Take `C#CCOc1ccc(Nc2nc(Nc3ccc(C)c(S(N)(=O)=O)c3)ncc2F)cc1` [Compound I HCl, N2-(3-aminosulfonyl-4-methylphenyl)-5-fluoro-N4-[4-(prop-2-ynyloxy)phenyl]-2,4-pyrimidinediamine]: the solubility in series [1] (40% TPGS/60% PEG400, organic solvent or mixture, 40% TPGS/60% PEG400, read-out: Solubility) came out at 1700 µg/mL; in series [1] (IPA, organic solvent or mixture, IPA, read-out: Solubility) it was 37 µg/mL; in series [1] (oleyl alcohol, oil or lipid, Oleyl alcohol, read-out: Solubility), 200 µg/mL; in series [1] (polyoxyglyceride (Labrafil M1944 CS), oil or lipid, Polyoxyglyceride (Labrafil M1944 CS), read-out: Solubility) it was 70 µg/mL; in series [1] (polyoxyglyceride (Labrasol), oil or lipid, Polyoxyglyceride (Labrasol), read-out: Solubility), 1800 µg/mL; in series [1] (triglyceride, oil or lipid, Triglyceride, read-out: Solubility), 20 µg/mL. Further, the solubility was 400 µg/mL in series [2] (DMI, organic solvent or mixture, DMI (temperature not given), read-out: Solubility); 300 µg/mL in series [2] (EtOH, organic solvent or mixture, EtOH (temperature not given), read-out: Solubility); 2.6 ^e mg/mL in series [2] (PEG400 (temperature not given)); 5.2 ^e mg/mL in series [2] (PG); 900 µg/mL in series [2] (diethylene glycol monoethyl ether (Transcutol P), organic solvent or mixture, Diethylene glycol monoethyl ether (transcutol P), read-out: Solubility); 5 µg/mL in series [2] (isopropyl myristate, oil or lipid, Isopropyl Myristate, read-out: Solubility). Moreover, the solubility in series [2] (propylene glycol laurate (Lauroglycol FCC), oil or lipid, Propylene Glycol Laurate (Lauroglycol FCC), read-out: Solubility) was found to be 20 µg/mL; in series [2] (propylene glycol monocaprylate (Capryol 90), oil or lipid, Propylene Glycol Monocaprylate (Capryol 90), read-out: Solubility) it was 70 µg/mL.
Regarding `C#CCOc1ccc(Nc2nc(Nc3ccc(C)c(S(N)(=O)=O)c3)ncc2F)cc1` [Compound I besylate salt, N2-(3-aminosulfonyl-4-methylphenyl)-5-fluoro-N4-[4-(prop-2-ynyloxy)phenyl]-2,4-pyrimidinediamine], the solubility in series [2] (PEG400 (temperature not given)) was 48000 µg/mL; in series [2] (PG), 15 ^d mg/mL.
The term IC50 denotes the concentration at which inhibition is half-maximal. A low value points to higher potency. As to `C#CCOc1ccc(Nc2nc(Nc3ccc(C)c(S(N)(=O)=O)c3)ncc2F)cc1` [Compound I, N2-(3-aminosulfonyl-4-methylphenyl)-5-fluoro-N4-[4-(prop-2-ynyloxy)phenyl]-2,4-pyrimidinediamine], the “activity on receptor tyrosine kinase (RTK) signaling” value in series [3] is recorded as “little or no activity”. Besides, the “activity on other cytokine (IL-1β and TNFα) signaling” value in series [4] was “little or no activity”. Also, the IC50 in series [5] is 181 pM; in series [8], 56 pM. Further, the solubility was determined as 77000 µg/mL (≈ 180 mM) in series [1] (4% H2O-96% THF, organic solvent or mixture, 4% H2O-96% THF, read-out: Solubility); 202000 µg/mL (≈ 473 mM) in series [1] (12% H2O-88% THF, organic solvent or mixture, 12% H2O-88% THF, read-out: Solubility); 163000 µg/mL (≈ 381 mM) in series [1] (16% H2O-84% THF, organic solvent or mixture, 16% H2O-84% THF, read-out: Solubility); 70000 µg/mL (≈ 164 mM) in series [1] (95% THF-5% PEG400, organic solvent or mixture, 95% THF-5% PEG400, read-out: Solubility); 124000 µg/mL (≈ 290 mM) in series [1] (DMI, 25 °C, organic solvent or mixture, DMI, determined at 25° C., read-out: Solubility); 2300 µg/mL (≈ 5.38 mM) in series [1] (Miglyol 812N, oil or lipid, Miglyol 812N, read-out: Solubility). Further, the solubility in series [1] (castor oil, oil or lipid, Castor Oil, read-out: Solubility) amounted to 7400 µg/mL (≈ 17.3 mM); in series [1] (water, 25 °C, water, 25° C., read-out: water solubility), 2 µg/mL (≈ 0.00468 mM); in series [2] (5% THF-95% PEG400, organic solvent or mixture, 5% THF-95% PEG400, read-out: Solubility) it was 117000 µg/mL (≈ 274 mM); in series [2] (10% THF-90% PEG400, organic solvent or mixture, 10% THF-90% PEG400, read-out: Solubility), 129000 µg/mL (≈ 302 mM); in series [2] (20% EtOH-80% PEG400, organic solvent or mixture, 20% EtOH-80% PEG400, read-out: Solubility), 126000 µg/mL (≈ 295 mM); in series [2] (20% H2O-80% THF, organic solvent or mixture, 20% H2O-80% THF, read-out: Solubility) it was 133000 µg/mL (≈ 311 mM). The solubility is 136000 µg/mL (≈ 318 mM) in series [2] (50% EtOH-50% PEG400, organic solvent or mixture, 50% EtOH-50% PEG400, read-out: Solubility); 75000 µg/mL (≈ 175 mM) in series [2] (90% THF-10% PEG400, organic solvent or mixture, 90% THF-10% PEG400, read-out: Solubility); 3200 µg/mL (≈ 7.49 mM) in series [2] (EtOH, 25 °C, organic solvent or mixture, EtOH, determined at 25° C., read-out: Solubility); >205 ^b mg/mL in series [2] (Glycofurol, listed as Compound I free base); 129 ^c mg/mL in series [2] (PEG400 (temperature not given), listed as Compound I free base); over 200000 µg/mL in series [2] (PEG400, 25 °C, organic solvent or mixture, PEG400, determined at 25° C., read-out: Solubility). Further, the solubility in series [2] (PEG400, determined at 25° C.) was 292000 µg/mL (≈ 683 mM); in series [2] (PG, listed as Compound I free base), 27 ^c mg/mL; in series [2] (glycofurol, organic solvent or mixture, Glycofurol, read-out: Solubility) it was over 200000 µg/mL; in series [2] (glycofurol/water 8/2, organic solvent or mixture, Glycofurol/water 8/2, read-out: Solubility), under 205000 µg/mL; in series [2] (glycofurol/water 9/1 w/w, organic solvent or mixture, Glycofurol/water 9/1 w/w, read-out: Solubility), over 202000 µg/mL; in series [2] (water, 25 °C, water, determined at 25° C., read-out: Solubility), 2 µg/mL (≈ 0.00468 mM). Moreover, the “compound I concentration that can be obtained (solubility study)” value in series [1] (at 45° C. in a formulation containing 14% water, 45% PEG400, and 20% PEG4500) was 120 mg/g. The EC50 in series [6] was about 140000 pM. Moreover, the “inhibition of cell proliferation” value in series [7] is given as “not a broad inhibitor of cell proliferation”.
